Test [1] concerns low density lipoprotein receptor (LDLR). Briefly: Real-time RT-PCR, LDLR mRNA in 3T3-L1. Type of test: cell-based, mouse. The conditions noted are these: 8 days. The source says:
(§1) Realtime RT-PCR: Real-time reverse transcriptase polymerase chain reaction (RT-PCR) analysis was used to measure mRNA expression of genes SREBP-1, PPARγ, C/EBPα, low density lipoprotein receptor (LDLR), Adiponectin, and fatty acid synthase (FAS) under the control of β-actin. Briefly, total RNA was isolated from 3T3-L1 cells following treatment for 8 days with Trizol reagent (Invitrogen, Carlsbad, Calif., USA) according to the manufacturer's instruction. RNA was quantified using absorption of light at 260 nm, and sample purity was checked by OD 260 nm/280 nm. 0.8 μg of total RNA from each sample was used for reverse transcription reaction using the TaqMan Reverse Transcription Reagents (Applied Biosystems, Foster City, Calif., USA) according to the manufacturers' instructions. PCR was done using the SYBR green Master Mix (Applied Biosystems, Foster City, Calif., USA) according to the manufacturers' instructions. The temperature cycling conditions of amplification were as follows: an initial step of denaturation at 95° C. for 10 min, 40 cycles of denaturation at 95° C. for 30 s, annealing at 55° C. for 30 s, and elongation at 72° C. for 30 s. Realtime RT-PCR was performed using Mx3000P Realtime Thermocyclers (Statagene, La Jolla, Calif., USA). The relative mRNA levels of these genes were calculated by 2-delta delta CT method and normalized with control groups.
(Real-time PCR tracks product formation cycle by cycle.)

The subject of test [2] is fatty acid synthase (FAS). In words: Real-time RT-PCR, FAS mRNA in 3T3-L1. The test is classed as cell-based, mouse. The conditions noted are these: 8 μM berberine + 50 μM risperidone, 8 days.
Text: as §1

The subject of the next test is GATA-2. In words: Real-Time RT-PCR, GATA-2 mRNA in epididymal fat of FD mice. The test is classed as in vivo, mouse. The procedure: RNA and protein purification and quantification from epididymal fat tissues: RNA and protein was isolated from 60 mg of epididymal fat tissues with Trizol (Invitrogen, Carlsbad, Calif., USA) following the protocol recommended by the manufacturers. RNA was dissolved in pure water and quantified at 260/280 nm, and sample integrity was checked by 1.5% agarose gel electrophoresis. Protein concentration was determined using the Micro BCA Protein Assay Kit (Fisher Scientific, Pittsburgh, Pa., USA) according to the manufacturer's instructions.
Quantitative Real-Time RT-PCR: Real-Time reverse transcriptase polymerase chain reaction (RT-PCR) analysis was used to measure mRNA expression of genes PPARγ, C/EBPα, GATA-2 and GATA-3 in the control of β-actin. Total RNA (0.8 μg) from each sample was used for a reverse transcription reaction using the TaqMan Reverse Transcription Reagents (Applied Biosystems, Foster City, Calif., USA) following the manufacturer's instructions. PCR was done using the SYBR green Master Mix (Applied Biosystems, Foster City, Calif., USA) following the manufacturer's instructions. The cycling conditions of amplification were as follows: an initial step of denaturation at 95° C. for 10 min, 40 cycles of denaturation at 95° C. for 30 s, annealing at 55° C. for 30 s, and elongation at 72° C. for 30 s. Real-Time PCR was performed using Mx3000P Real-Time Thermocyclers (Stratagene, La Jolla, Calif., USA). The relative mRNA levels of these genes were calculated by 2-delta delta CT method and normalized with control-treated groups.

The subject of a further test is 3T3-L1 cells. In words: Oil-Red-O staining and quantification, berberine with amentoflavone in 3T3-L1 (Example 6). Type of test: cell-based, mouse. As to conditions: 8 days. The procedure: Oil-Red-O staining and quantification: Oil-Red-O Staining and its quantification were performed as previously reported. Briefly, medium was removed and cells were washed with PBS twice, fixed with 3.7% formalin at room temperature for 30 min, then rinsed with pure water, added 60% isopropanol and incubated for 5 minutes, then moved out isopropanol and stained cells with diluted Oil-Red-O solution (Oil-Red-O store solution (3 mg/ml in pure isopropanol): water=3:2) at room temperature for 10 min. Then the diluted Oil-Red-O solution was removed and cells were washed 3 times with pure water. After staining, the cells were washed twice with 70% ethanol to remove excess stain. Stained oil droplets in the cells were dissolved in isopropanol containing 4% Nonidet-P40 (Fisher Scientific, Pittsburgh, Pa., USA) shaking in 37° C. at speed 100 rpm for 1 hour, and OD values were measured at an absorbance of 490 nm and then normalized with control group.

The test system of test [3] is SERT (serotonin transporter). In words: Immunoblot, SERT protein in RN46A cells. Type of test: cell-based. On the technique in general: Immunoblotting shows a protein as a band on a membrane.
Method: Immunoblot Analysis: Protein expression of SERT was assessed by Western Blot. Total proteins were isolated from RN46A cells treated with compounds or vehicles. The cells were washed twice with PBS, lysed in a lysis buffer containing HEPES-Tx-PI buffer: 910 mM HEPES, 5 mM EDTA, 350 mM Sucrose, 1 μg/ml leupeptin, 1 μg/ml pepstatin, 1% Triton-X, 1 mM PMSF), processed with a 25G needle and centrifuged at 10,000 rpm for 5 min. Protein concentration was determined using the Micro BCA Protein Assay Kit (Fisher Scientific, Pittsburgh, Pa., USA) according to the manufacturers instructions. 25 μg proteins were loaded and separated by electrophoresis using the BioRad Electrophoretic System (60 V for 1 hour followed by 90 V for 5 hours). The proteins were then transferred to nitrocellulose membranes at 35 V overnight. The membrane was blocked for 1 hour at room temperature in 5% nonfat milk in Tris-buffered saline (TBS), then washed with Tween-20-TBS (TTBS, 0.1% Tween-20) three times (15 min, 5 min, 5 min), followed by incubation with primary antibodies SERT (dilution 1:200) (Antibody was purchased from Santa Cruz Biotechnology, Santa Cruz, Calif., USA) and β-actin (dilution 1:1000) (Antibody was purchased from Sigma-aldrich, USA) at room temperature for 2 hours. […]
For test [4], the system named is SERT promoter (5-HTTLPR alleles). In words: DRL (dual luciferase reporter) assay, SERT promoter activity of 5-HTTLPR alleles in RN46A cells. Type of test: cell-based. As to conditions: 2 μM evodiamine. The source says: The PCR reaction to amplify the 5-HTTLPR alleles for sequencing and creation of reporter constructs contained primers different than those used for the genotyping experiment.
The primer sequences were described previously and are as follows: Forward primer 5′-[…]-3′ (SEQ ID NO:25) and Reverse primer 5′-[…]-3′ (SEQ ID NO:26) (Hu et al., Am J Hum Genet (2006) 78(5):815-826). The PCR products of the six 5-HTTLPR alleles (S, LG, LA, XS, XL-17, and XL-18) were subcloned into the TOPO TA cloning vector pCR2.1-TOPO (Invitrogen) and transformed to One Shot TOP10 competent E. coli cells according to the manufacturer's instructions. In the case of individuals heterozygous for 5-HTTLPR, resulting transformants were screened for the presence of the correct insert using the restriction enzyme EcoR I.
The resulting constructs, created and sequenced, in the pCR2.1-TOPO vector (S, LG, LA, XS, XL-17, and XL-18 alleles) were subcloned to the luciferase reporter vector pGL4.10 [luc2] (Promega) using standard molecular techniques. Additionally, each allele was cloned into pGL4.10 [luc2] in the backwards orientation to ensure that transcriptional effects were the result of consensus promoter sequences. […] The co-transfection with the 5-HTTLPR pGL4.10 constructs (firefly luciferase) and the pRL-SV40 vector (renilla luciferase) to the RN46A raphe-derived cell line using Lipofectamine 2000 (Invitrogen) was described previously. Expression was measured using the Dual-Luciferase Reporter Assay System (Promega) 24 h after transfection with passive lysis buffer.
Relative light units (RLU) for both the firefly and renilla luciferase was measured using a 20/20^n Luminometer (Turner Biosystems, Sunnyvale Calif. 94085) and the ratio between the firefly RLU to renilla RLU in each sample was determined. The values were all normalized to the (S) allele.
In general terms: Reporter assays use an easily measured gene product as a stand-in for the process of interest.

For the molecule `COc1ccc2cc3[n+](cc2c1OC)CCc1cc2c(cc1-3)OCO2.[Cl-]` [berberine, Berberine (Chloride Form)], the “decrease of LDLR mRNA expression vs clozapine treated group” value in test [1] (8 μM berberine + 15 μM clozapine) is reported as 82.3%. The “decrease of LDLR mRNA expression vs risperidone treated group” value in test [1] (8 μM berberine + 50 μM risperidone) is reported as 90%. The “decrease of FAS mRNA expression vs risperidone treated group” value in test [2] came out at 85.5%. In addition, the “GATA-2 mRNA expression increased to” value with GATA-2 (0.75 mg/kg/day) was found to be 2.7 fold; with GATA-2 (1.5 mg/kg/day), 3.4 fold; with GATA-2 (3 mg/kg/day), 3.7 fold. Further, the “reduction in lipid content vs no berberine treated group” value came out at 26% in the test on 3T3-L1 cells (2 μM berberine, differentiation medium with 15 μM clozapine); 9.9% in the test with 3T3-L1 cells (2 μM berberine, differentiation medium without clozapine); 70.7% in the test on 3T3-L1 cells (4 μM berberine, differentiation medium with 15 μM clozapine); 59.6% with 3T3-L1 cells (4 μM berberine, differentiation medium without clozapine); 88.1% in the test on 3T3-L1 cells (8 μM berberine, differentiation medium with 15 μM clozapine); 81.7% with 3T3-L1 cells (8 μM berberine, differentiation medium without clozapine). In addition, the “reduction in lipid content vs no berberine treated group” value in the test with 3T3-L1 cells (16 μM berberine, differentiation medium without clozapine) was 81%.

Regarding evodiamine, in test [3], the “SERT protein expression profile (Western blot)” value is “consistent with its mRNA expression profile”. In addition, the “increase of SERT promoter activity vs vehicle” value in test [4] (LA allele) stood at 171.5%; in test [4] (LG allele), 288.5%; in test [4] (S allele) it was 206.9%; in test [4] (XL17 allele), 165.6%; in test [4] (XL18 allele), 96.3%; in test [4] (XS allele) it was 74.3%.
